# Experiments:
# [1] = Inhibition of SARS coronavirus 2 3 main viral protease 3-chymotrypsin-like activity expressed in Escherichia coli using Dabcyl-VNSTLQSGLRK(FAM)MA as substrate measured by fluorescence intensity assay; set-up: species or system Severe acute respiratory syndrome coronavirus 2
# HEK-293T = test: Cytotoxicity against human HEK293T cells assessed as reduction in cell viability; assay type: cell-based
SMILES,IC50 [1] [µM],IC50 (HEK-293T) [µM]
CC12CNCC(C)(CNC1)C2=O,2.6,> 1000
C=CC(=O)N1CC2(C)CN(C(=O)C=C)CC(C)(C1)C2,99.6,> 1000
CC12CN(Cc3ccccc3)CC(C)(CN(Cc3ccccc3)C1)C2=O,0.9,359
Cn1nc(C(=O)N2CC3(C)CN(C(=O)c4nn(C)c5c4CCc4ccccc4-5)CC(C)(C2)C3=O)c2c1-c1ccccc1CC2,0.75,> 800
CC12CN(Cc3cn(Cc4ccccc4)nn3)CC(C)(CN(Cc3cn(Cc4ccccc4)nn3)C1)C2=O,2.2,560
CC12CN(C(=O)c3ccccc3)CC(C)(CN(C(=O)c3ccccc3)C1)C2=O,3.3,692
CC12CN(CC(=O)O)CC(C)(CN(CC(=O)O)C1)C2=O,7.1,> 1000
CC(C)(C)OC(=O)NCCn1cc(CN2CC3(C)CN(Cc4cn(CCNC(=O)OC(C)(C)C)nn4)CC(C)(C2)C3=O)nn1,0.83,410
CCOC(=O)c1n[nH]cc1-n1cc(CN2CC3(C)CN(Cc4cn(-c5c[nH]nc5C(=O)OCC)nn4)CC(C)(C2)C3=O)nn1,16.3,> 700
C#CCN1CC2(C)CN(CC#C)CC(C)(C1)C2=O,8.8,> 1000
CC12CN(C(=O)OC(C)(C)C)CC(C)(CN(C(=O)OC(C)(C)C)C1)C2,17.9,302
CC(C)(C)OC(=O)N1CC2(C)CN(C(=O)OC(C)(C)C)CC(C)(C1)C2=O,5.9,> 1000
CC(C)Cc1ccc(C(C)C(=O)O)cc1 (stereo not given) [IBUPROFEN],> 500,–
Cn1nc(C(=O)N2CC3(C)CN(C(=O)c4cc(-c5ccccc5)n(C)n4)CC(C)(C2)C3=O)cc1-c1ccccc1,1.45,> 900
CC12CN(C(=O)/C=C/c3ccccc3)CC(C)(CN(C(=O)/C=C/c3ccccc3)C1)C2,46.6,253
Cn1nc(C(=O)N2CC3(C)CN(C(=O)c4cc(-c5cccs5)n(C)n4)CC(C)(C2)C3=O)cc1-c1cccs1,4.99,456
C#CC(=O)N1CC2(C)CN(C(=O)C#C)CC(C)(C1)C2=O,5.5,57.3
CC(=O)N1CC2(C)CN(C(C)=O)CC(C)(C1)C2=O,18.5,> 1000
CC12CN(C(=O)/C=C/c3ccccc3)CC(C)(CN(C(=O)/C=C/c3ccccc3)C1)C2=O,4.8,> 1000
CC12CN(C(=O)c3cc(-c4ccccc4)n(-c4ccccc4)n3)CC(C)(CN(C(=O)c3cc(-c4ccccc4)n(-c4ccccc4)n3)C1)C2=O,1.4,> 700
CC12CN(CCN(CC(=O)O)CC(=O)O)CC(C)(CN(CCN(C(=O)O)C(=O)O)C1)C2=O,33.7,257
Cn1nc(C(=O)N2CC3(C)CN(C(=O)c4nn(C)c5c4Cc4ccccc4-5)CC(C)(C2)C3=O)c2c1-c1ccccc1C2,13,> 800
CC(C)(C)OC(=O)Cn1cc(CN2CC3(C)CN(Cc4cn(CC(=O)OC(C)(C)C)nn4)CC(C)(C2)C3=O)nn1,2.02,465
CCOC(=O)c1cc(-n2cc(CN3CC4(C)CN(Cc5cn(-c6cc(C(=O)OCC)n[nH]6)nn5)CC(C)(C3)C4=O)nn2)[nH]n1,13.6,–
Cc1cc(CN2CC3(C)CN(Cc4cc(C)no4)CC(C)(C2)C3=O)on1,5.2,> 700
CC12CN(CC#N)CC(C)(CN(CC#N)C1)C2=O,5.5,> 700

# Source: ChEMBL document CHEMBL5030568, “Design and Evaluation of Bispidine-Based SARS-CoV-2 Main Protease Inhibitors” (ACS Med Chem Lett, 2022)
